Here are results for 3 compounds from US20240115589A1, “PHARMACEUTICAL COMPOSITION FOR PREVENTING CYTOKINE STORM” (KINKI UNIVERSITY, priority 2021, published 2024).

Assay type in all cases: cell-based
Assay [1] concerns TNFα mRNA. The assay can be described thus: LPS-stimulated TNFα mRNA expression in mouse B cells (real time PCR). Particulars: then 10 μg/mL LPS 4 h, vs LPS-treated group. The method, then:
The inhibitory effect of compounds on TNFα mRNA expression involved in cytokine storm was examined using mouse B cells.
(§1) Mouse B cells were pre-cultured with RPMI1640 medium for 1 day. After incubation, mouse B cells were treated with 10 μM mangiferin 8a, 10 μM norathyriol, 1 μM M9, and 1 μM M14 for 1 day. Then, 10 μg/mL LPS was added to mouse B cells and cultured for 4 h. After incubation, cells were collected, RNA was extracted, and TNFα mRNA expression was measured by real time PCR.
(§2) For controls, only 0.5% DMSO (diluted in PBS) used to dissolve the compounds was added. 10 μg/mL LPS administered is called the LPS-treated group, LPS and mangiferin 8a administered in combination is called the mangiferin 8a-treated group, LPS and norathyriol administered in combination is called the norathyriol group, LPS and M9 administered in combination is called the M9-treated group, LPS and M14 administered in combination is called the M14-treated group, respectively.
In general terms: Real-time PCR tracks product formation cycle by cycle.

In assay [2] the test system is TNFα mRNA. The assay can be described thus: LPS-stimulated TNFα mRNA expression in mouse macrophages (real time PCR). Particulars: then 10 μg/mL LPS 4 h, vs LPS-treated group. The method, then: The inhibitory effect of compounds on TNFα mRNA expression involved in cytokine storm was examined using mouse macrophages.
(§3) Mouse macrophages were pre-cultured with RPMI1640 medium for 1 day. After incubation, mouse macrophages were treated with 10 μM mangiferin 8a, 10 μM norathyriol, 1 μM M9, and 1 μM M14 for 1 day. Then, 10 μg/mL LPS was added to mouse macrophages and cultured for 4 h. After incubation, cells were collected, RNA was extracted, and TNFα mRNA expression was measured by real time PCR.
as §2

Assay [3] has as its system TNFα. The assay can be described thus: LPS-stimulated TNFα production in mouse macrophages (ELISA). Particulars: culture supernatant, then 10 μg/mL LPS 2 days, control 24.11, LPS alone 421.13 pg/mL. How it is done:
The inhibitory effect of compounds on TNFα production involved in cytokine storm was examined using mouse macrophages.
Mouse macrophages were pre-cultured with RPMI1640 medium for 1 day. After incubation, mouse macrophages were treated with 10 μM mangiferin 8a, 10 μM norathyriol, 1 μM M9, and 1 μM M14 for 1 day. Then, 10 μg/mL LPS was added to mouse macrophages and cultured for 2 days. After incubation, the culture supernatant was collected and TNFα production was determined by enzyme-linked immunosorbent assay (ELISA). This measurement was performed using a mouse TNFα ELISA kit (R&D).

Assay [4] deals with TNFα. The assay can be described thus: LPS-stimulated TNFα production in mouse B cells (ELISA). The following applies: culture supernatant, then 10 μg/mL LPS 2 days, control 15.13, LPS alone 296.31 pg/mL. How it is done: The inhibitory effect of compounds on TNFα production involved in cytokine storm was examined using mouse B cells.
Mouse B cells were pre-cultured with RPMI1640 medium for 1 day. After incubation, mouse B cells were treated with 10 μM mangiferin 8a, 10 μM norathyriol, 1 μM M9, and 1 μM M14 for 1 day. Then, 10 μg/mL LPS was added to mouse B cells and cultured for 2 days. After incubation, the culture supernatant was collected and TNFα production was determined by enzyme-linked immunosorbent assay (ELISA). This measurement was performed using a mouse TNFα ELISA kit (R&D).
In general terms: In an ELISA, binding on a coated surface is turned into a signal by an enzyme label.

In assay [5] the test system is IL-6. The assay can be described thus: LPS-stimulated IL-6 production in mouse B cells (ELISA). The following applies: culture supernatant, then 10 μg/mL LPS 2 days, control 9.46, LPS alone 246.13 pg/mL. The method, then: The inhibitory effect of compounds on IL-6 production involved in cytokine storm was examined using mouse B cells.
Mouse B cells were pre-cultured with RPMI1640 medium for 1 day. After incubation, mouse B cells were treated with 10 μM mangiferin 8a, 10 μM norathyriol, 1 μM M9, and 1 μM M14 for 1 day. Then, 10 μg/mL LPS was added to mouse B cells and cultured for 2 days. After incubation, the culture supernatant was collected and IL-6 production was determined by enzyme-linked immunosorbent assay (ELISA). This measurement was performed using a mouse IL-6 ELISAkit (R&D).

The test system of assay [6] is IL-6. The assay can be described thus: LPS-stimulated IL-6 production in mouse macrophages (ELISA). Particulars: culture supernatant, then 10 μg/mL LPS 2 days, control 13.13, LPS alone 321.13 pg/mL. How it is done: The inhibitory effect of compounds on IL-6 production involved in cytokine storm was examined using mouse macrophages.
Mouse macrophages were pre-cultured with RPMI1640 medium for 1 day. After incubation, mouse macrophages were treated with 10 μM mangiferin 8a, 10 μM norathyriol, 1 μM M9, and 1 μM M14 for 1 day. Then, 10 μg/mL LPS was added to mouse macrophages and cultured for 2 days. After incubation, the culture supernatant was collected and IL-6 production was determined by enzyme-linked immunosorbent assay (ELISA). This measurement was performed using a mouse IL-6 ELISA kit (R&D).

The test system of assay [7] is IL-6 mRNA. The assay can be described thus: LPS-stimulated IL-6 mRNA expression in mouse macrophages (real time PCR). Particulars: then 10 μg/mL LPS 4 h, vs LPS-treated group. How it is done:
as §3
The inhibitory effect of compounds on IL-6 mRNA expression involved in cytokine storm was examined using mouse macrophages.
The experimental procedure is the same as in Example 3. […] For controls, only 0.5% DMSO (diluted in PBS) used to dissolve the compounds was added. 10 μg/mL LPS administered is called the LPS-treated group, LPS and mangiferin 8a administered in combination is called the mangiferin 8a-treated group, LPS and norathyriol administered in combination is called the norathyriol group, LPS and M9 administered in combination is called the M9-treated group, LPS and M14 administered in combination is called the M14-treated group, respectively.

For assay [8], the system named is IL-6 mRNA. The assay can be described thus: LPS-stimulated IL-6 mRNA expression in mouse B cells (real time PCR). Particulars: then 10 μg/mL LPS 4 h, vs LPS-treated group. The method, then: as §1
The inhibitory effect of compounds on IL-6 mRNA expression involved in cytokine storm was examined using mouse B cells. The experimental procedure is the same as in Example 1.
as §2

With `CCC(=O)OC[C@H]1O[C@@H](c2c(O)cc3oc4cc(O)c(O)cc4c(=O)c3c2O)[C@H](OC(=O)CC)[C@@H](OC(=O)CC)[C@@H]1OC(=O)CC` [M9, 2′,3′,4′,6′-tetra-O-propionylmangiferin], the “LPS-induced TNFα mRNA expression (ratio to GAPDH mRNA)” value with TNFα mRNA [1] (1 μM compound 1 day) and with TNFα mRNA [2] (1 μM compound 1 day) was “decrease in LPS-induced TNFα mRNA expression” each time. Moreover, the TNFα production is recorded as 58.13 pg/mL in the assay with TNFα [3] (1 μM compound 1 day) and 55.13 pg/mL in the assay with TNFα [4] (1 μM compound 1 day). Besides, the IL-6 production in the assay with IL-6 [5] (1 μM compound 1 day) is listed as 45.12 pg/mL; in the assay on IL-6 [6] (1 μM compound 1 day), 49.46 pg/mL. Besides, the “LPS-induced IL-6 mRNA expression (ratio to GAPDH mRNA)” value in the assay with IL-6 mRNA [7] (1 μM compound 1 day) and with IL-6 mRNA [8] (1 μM compound 1 day) was “decrease in LPS-induced IL-6 mRNA expression” each time.
Turning to `CCCC(=O)OC[C@H]1O[C@@H](c2c(O)cc3oc4cc(O)c(O)cc4c(=O)c3c2O)[C@H](OC(=O)CCC)[C@@H](OC(=O)CCC)[C@@H]1OC(=O)CCC` [M14, 2′,3′,4′,6′-tetra-O-butyrylmangiferin], the “LPS-induced TNFα mRNA expression (ratio to GAPDH mRNA)” value in the assay on TNFα mRNA [1] (1 μM compound 1 day) and in the assay on TNFα mRNA [2] (1 μM compound 1 day) was “decrease in LPS-induced TNFα mRNA expression” throughout. For the same compound, the values for the TNFα production with TNFα [3] (1 μM compound 1 day) and in the assay on TNFα [4] (1 μM compound 1 day) were 54.13 pg/mL and 46.13 pg/mL, respectively. Also, the IL-6 production in the assay on IL-6 [5] (1 μM compound 1 day) and with IL-6 [6] (1 μM compound 1 day) was 45.13 pg/mL in each case. Also, the “LPS-induced IL-6 mRNA expression (ratio to GAPDH mRNA)” value in the assay on IL-6 mRNA [7] (1 μM compound 1 day) and with IL-6 mRNA [8] (1 μM compound 1 day) was “decrease in LPS-induced IL-6 mRNA expression” throughout.
As to `O=c1c2cc(O)c(O)cc2oc2cc(O)cc(O)c12` [norathyriol, 1,3,6,7-tetrahydroxyxanthone], the “LPS-induced TNFα mRNA expression (ratio to GAPDH mRNA)” value in the assay on TNFα mRNA [1] (10 μM compound 1 day) and in the assay with TNFα mRNA [2] (10 μM compound 1 day) was “decrease in LPS-induced TNFα mRNA expression” each time. Further, the TNFα production in the assay with TNFα [3] (10 μM compound 1 day) turned out to be 68.13 pg/mL; in the assay on TNFα [4] (10 μM compound 1 day) it was 64.13 pg/mL. Moreover, the IL-6 production in the assay with IL-6 [5] (10 μM compound 1 day) amounted to 56.13 pg/mL; with IL-6 [6] (10 μM compound 1 day), 64.13 pg/mL. Also, the “LPS-induced IL-6 mRNA expression (ratio to GAPDH mRNA)” value with IL-6 mRNA [7] (10 μM compound 1 day) and in the assay on IL-6 mRNA [8] (10 μM compound 1 day) was “decrease in LPS-induced IL-6 mRNA expression” in each case.
